For assay [1], the system named is db/db mice. The assay can be described thus: Plasma N-glycan profile of db/db mice treated with insulin detemir. Type of assay: in vivo, mouse. The following applies: for Direction of change of hybrid glycan 430010 / Direction of change of hybrid glycan 530010 / Direction of change of hybrid glycan 630010: days 7, 14, 21, significant as early as Day 7; for Direction of change of high mannose glycan 520000 (Man5GlcNAc2) / Direction of change of high mannose glycan 620000 (Man6GlcNAc2) / Direction of change of high mannose glycan 720000 (Man7GlcNAc2) / Direction of change of high mannose glycan 820000 (Man8GlcNAc2): significant at Day 7, 14 and 21. The protocol:
A 10 μl aliquot of each plasma sample was spiked with internal standard (700 pmol) and analyzed for N-linked glycans using Ezose Sciences' GLYCANMAP methodology. The samples were denatured and then digested with trypsin, followed by heat-inactivation. The mixture was then treated with PNGase F. After enzymatic release of N-glycans, aliquots were subjected to solid-phase processing using BLOTGLYCO beads. Following capture on the beads, the sialic acid residues were methyl esterified. The glycans were simultaneously released from the beads and labeled, and then aliquots of the recovered materials were spotted onto a MALDI target plate. Steps from initial aliquoting to spotting on the MALDI plate were performed using the fully automated SWEETBLOT technology. MALDI-TOF MS analysis was performed on an ultraflex III mass spectrometer (Bruker Daltonics) in the positive-ion, reflector mode. Each sample from the BLOTGLYCO bead processing step was spotted in quadruplicate, and spectra were obtained in an automated manner using the AutoXecute feature in flexControl software (Bruker Daltonics). Proposed glycan structures were assigned based on molecular weight. These methods have been described previously by Nishimura, Furukawa and Miura (Nishimura et al., Angew Chem. Int. Ed. Engl., 44: 91-96 (2004); Furukawa et al., Anal. Chem., 80: 1094-1101 (2008); Miura et al., Chem.-A Eur. J, 13: 4797-4804 (2007)). Alternatively, standard fluorescent HPLC or capillary electrophoresis methods with 2-AA, 2-AB, or APTS labeling can be used to monitor the glycan levels and changes in glycan patterns.
A further study was undertaken to evaluate the performance of candidate biomarkers discovered using rosiglitazone in mice treated with a diabetes drug having a different mechanism of action. The candidate biomarkers that were identified in Example 1 were evaluated in db/db mice treated with insulin detemir and vehicle.
Plasma samples were analyzed from ten db/db mice at baseline (0 days) and from 20 db/db mice (ten vehicle and ten insulin detemir-treated) at 7, 14, and 21 days. Sample preparation and analysis followed the protocol described in Example 1.
Concentrations of individual glycans in insulin detemir- and vehicle-treated db/db mice were compared at each time-point using the Student's t-test. N-glycans which yielded p-values<0.05 in this analysis were considered significant. Time-dependence was also evaluated for each of the candidate biomarkers by comparing each time-point to baseline.

Assay [2] concerns db/db mice. Put plainly: Plasma N-glycan profile (GLYCANMAP, MALDI-TOF MS) of db/db mice treated with rosiglitazone, initial study (Table 1 summarises both rosiglitazone studies). It is filed as in vivo, mouse. The following applies: first rosiglitazone study, db/db mice vs vehicle. The protocol: A 10 μl aliquot of each plasma sample was spiked with internal standard (700 pmol) and analyzed for N-linked glycans using Ezose Sciences' GLYCANMAP methodology. The samples were denatured and then digested with trypsin, followed by heat-inactivation. The mixture was then treated with PNGase F. After enzymatic release of N-glycans, aliquots were subjected to solid-phase processing using BLOTGLYCO beads. Following capture on the beads, the sialic acid residues were methyl esterified. The glycans were simultaneously released from the beads and labeled, and then aliquots of the recovered materials were spotted onto a MALDI target plate. […]
Rosigilitazone is a member of the athiazolidinedione class of anti-diabetic drugs, and is marketed by Glaxo under the trade name AVANDIA. […] A baseline (Day 0) sample was not analyzed in the initial rosiglitazone study, but was included in a subsequent rosiglitazone confirmatory study. […]
Several criteria were used in the initial rosiglitazone study to select the most promising biomarkers. Statistical significance was evaluated based on the Mann-Whitney test or Student's t-test and changes considered significant if the resulting p-value was less than 0.05. […] After the confirmatory rosiglitazone study, one glycan (530010) that had been excluded in the initial study was re-evaluated. […]

Where [3] appears, read: db/db mice plasma vs vehicle, listed as Insulin Detemir.

Consider insulin detemir, for which the “Changes in HbA1c compared with rosiglitazone” value with db/db mice [1] (db/db mice) is “more subtle changes”. In the assay with db/db mice [1] (db/db mice plasma), the “Magnitude of changes in high-mannose glycans compared with rosiglitazone” value is listed as “lower in magnitude”. Also, in the assay on db/db mice [1] (db/db mice plasma vs vehicle), the “Changes in Glycan 540020” value was “no significant changes”, the “Changes in O-acetylated N-glycans” value was “no significant changes”, the “Changes in fucosylated N-glycans” value was “no significant changes” and the “Direction of change of hybrid glycan 430010” value was “significant decreases”. Besides, in the assay with db/db mice [1] (db/db mice plasma vs vehicle), the “Direction of change of hybrid glycan 530010” value is recorded as “significant decreases”, the “Direction of change of hybrid glycan 630010” value is on record as “significant decreases”, the “Direction of change of high mannose glycan 520000 (Man5GlcNAc2)” value is “lower levels” and the “Direction of change of high mannose glycan 620000 (Man6GlcNAc2)” value is “lower levels”. Besides, in the assay with db/db mice [1] (db/db mice plasma vs vehicle), the “Direction of change of high mannose glycan 720000 (Man7GlcNAc2)” value is “lower levels” and the “Direction of change of high mannose glycan 820000 (Man8GlcNAc2)” value is recorded as “lower levels”. Besides, in the assay on db/db mice [1] (setting [3]), the “Direction of change of hybrid glycan 430010” value was “Decreased”, the “Direction of change of hybrid glycan 530010” value was “Decreased”, the “Direction of change of hybrid glycan 630010” value is given as “Decreased” and the “Direction of change of high mannose glycan 520000 (Man5GlcNAc2)” value is “Decreased”. Also, in the assay on db/db mice [1] (setting [3]), the “Direction of change of high mannose glycan 620000 (Man6GlcNAc2)” value is “Decreased”, the “Direction of change of high mannose glycan 720000 (Man7GlcNAc2)” value is “Decreased” and the “Direction of change of high mannose glycan 820000 (Man8GlcNAc2)” value is recorded as “Decreased”.

Consider `CN(CCOc1ccc(CC2SC(=O)NC2=O)cc1)c1ccccn1` (centres unmarked) [rosiglitazone], for which, in the assay with db/db mice [2], the “Time until highly significant difference (p<0.001) was achieved for HbA1c” value was 21 days.

Values taken from patent publication US20150072888A1, “Biomarkers For Diagnosis Of Diabetes And Monitoring Of Anti-Diabetic Therapy” (Sumitomo Bakelite Co., Ltd., priority 2012, published 2015).
